# PubChem BioAssay (NCI)
# Where “and” joins values, the source holds several entries; their conditions need not be identical. Identical values can stand only once.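 48-hour exposure; five concentrations; linearly interpolated endpoints. Abbreviation: GI50, concentration required for 50% inhibition of growth. The concentration for full growth arrest is given as TGI.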
# How the values were obtained:
# Assay in all cases: DTP human tumour cell line panel, 48 h
# [1] = test system: SNB-75 CNS
# [2] = test system: MCF7 breast
# [3] = test system: ACHN renal
# [4] = test system: HCT-15 colon
# [5] = test system: UACC-257 melanoma
# [6] = test system: NCI/ADR-RES ovarian
# [7] = test system: UO-31 renal
# [8] = test system: HT29 colon
# [9] = test system: A549 NSCLC
# [10] = test system: HCC-2998 colon
# [11] = test system: EKVX NSCLC
# [12] = test system: NCI-H226 lung
# [13] = test system: MALME-3M melanoma
# [14] = test system: OVCAR-5 ovarian
# [15] = test system: NCI-H23 lung
# [16] = test system: 786-0 renal
# [17] = test system: OVCAR-4 ovarian
# [18] = test system: HL-60(TB) leukemia
# [19] = test system: SK-MEL-5 melanoma
# [20] = test system: M14 melanoma
# [21] = test system: KM12 colon
# [22] = test system: OVCAR-3 ovarian
# [23] = test system: SK-OV-3 ovarian
# [24] = test system: SNB-19 CNS
# [25] = test system: SF-295 CNS
# [26] = test system: HOP-92 NSCLC
# [27] = test system: IGROV1 ovarian
# [28] = test system: OVCAR-8 ovarian
# [29] = test system: COLO 205 colon
# [30] = test system: K-562 leukemia
# [31] = test system: A498 renal
# [32] = test system: U251 CNS
# [33] = test system: SF-539 CNS
# [34] = test system: SK-MEL-28 melanoma
# [35] = test system: HS 578T breast
# [36] = test system: TK-10 renal
# [37] = test system: DU-145 prostate
# [38] = test system: T-47D breast
# [39] = test system: BT-549 breast
# [40] = test system: SR leukemia
# [41] = test system: PC-3 prostate
# [42] = test system: SW-620 colon
# [43] = test system: UACC-62 melanoma
# [44] = test system: SN12C renal
# [45] = test system: LOX IMVI melanoma
# [46] = test system: MDA-MB-435
# [47] = test system: SF-268 CNS
# [48] = test system: HCT-116 colon
# [49] = test system: MDA-MB-231 breast
# [50] = test system: CAKI-1 renal
# [51] = test system: RXF 393 renal
# [52] = test system: CCRF-CEM leukemia
# [53] = test system: RPMI-8226 leukemia
# [54] = test system: NCI-H522 lung
# [55] = test system: NCI-H460 lung
# [56] = test system: SK-MEL-2 melanoma
# [57] = test system: MOLT-4 leukemia
# [58] = test system: HOP-62 NSCLC
structure (smiles),measurement,setting,value
C=CC(=O)Nc1cccc(Nc2nc(Nc3ccc(N4CCN(C(C)=O)CC4)cc3OC)ncc2C(F)(F)F)c1,GI50,[1],5.18 µM and 2.47 µM
same,TGI,[1],> 10 µM and 15.3 µM
same,GI50,[2],1410 nM and 933 nM
same,TGI,[2],> 100 µM
same,GI50,[3],2960 nM and 1840 nM
same,TGI,[3],> 30.3 µM
same,GI50,[4],3.06 µM and 2.94 µM
same,TGI,[4],> 10 µM and 13.8 µM
same,GI50,[5],3.97 µM and 2.97 µM
same,TGI,[5],> 10 µM and 68.8 µM
same,GI50,[6],7.5 µM and 9.09 µM
same,TGI,[6],> 74.4 µM
same,GI50,[7],2050 nM and 1760 nM
same,TGI,[7],> 68.6 µM
same,GI50,[8],2180 nM and 1550 nM
same,TGI,[8],> 27.1 µM
same,GI50,[9],2520 nM and 1810 nM
same,TGI,[9],> 10 µM and 12.1 µM
same,GI50,[10],2.58 µM and 4.62 µM
same,TGI,[10],> 10 µM and 22.4 µM
same,GI50,[11],1360 nM and 1680 nM
same,TGI,[11],> 10 µM and 12.4 µM
same,GI50,[12],3.29 µM and 2.38 µM
same,TGI,[12],> 10 µM and 12.7 µM
same,GI50,[13],8.88 µM and 3.09 µM
same,TGI,[13],> 10 µM and 16.4 µM
same,GI50,[14],3.15 µM and 2.29 µM
same,TGI,[14],> 100 µM
same,GI50,[15],5.27 µM and 5.47 µM
same,TGI,[15],> 10 µM and 30 µM
same,GI50,[16],2670 nM and 1560 nM
same,TGI,[16],> 10 µM and 12.8 µM
same,GI50,[17],5.12 µM and 1.71 µM
same,TGI,[17],> 65.9 µM
same,GI50,[18],1260 nM and 2260 nM
same,TGI,[18],> 34 µM
same,GI50,[19],4.12 µM and 4.3 µM
same,TGI,[19],> 10 µM and 17.9 µM
same,GI50,[20],3.67 µM and 2.73 µM
same,TGI,[20],> 100 µM
same,GI50,[21],7.48 µM and 5.58 µM
same,TGI,[21],> 10 µM and 38.6 µM
same,GI50,[22],3.69 µM and 1.07 µM
same,TGI,[22],> 30.3 µM
same,GI50,[23],211 nM and 291 nM
same,TGI,[23],2.8 µM and 5.29 µM
same,GI50,[24],5.83 µM
same,TGI,[24],> 100 µM
same,GI50,[25],6.82 µM and 8.18 µM
same,TGI,[25],> 10 µM and 23.1 µM
same,GI50,[26],787 nM and 525 nM
same,TGI,[26],4.88 µM and 4.21 µM
same,GI50,[27],1940 nM and 2710 nM
same,TGI,[27],9.84 µM and 13.6 µM
same,GI50,[28],4.05 µM and 3.51 µM
same,TGI,[28],> 10 µM and 98.2 µM
same,GI50,[29],1860 nM and 1780 nM
same,TGI,[29],4.71 µM and 5.75 µM
same,GI50,[30],8.12 µM and 5.61 µM
same,TGI,[30],> 100 µM
same,GI50,[31],2000 nM and 802 nM
same,TGI,[31],6.01 µM and 2.94 µM
same,GI50,[32],4.75 µM and 4.08 µM
same,TGI,[32],> 100 µM
same,GI50,[33],4.47 µM and 3.17 µM
same,TGI,[33],> 10 µM and 14.2 µM
same,GI50,[34],8.43 µM
same,TGI,[34],> 93.1 µM
same,GI50,[35],3.73 µM and 3.36 µM
same,TGI,[35],> 95.9 µM
same,GI50,[36],320 nM and 441 nM
same,TGI,[36],2.16 µM and 4.03 µM
same,GI50,[37],4.23 µM and 2.39 µM
same,TGI,[37],> 10 µM and 17.3 µM
same,GI50,[38],1.88 µM and 3.92 µM
same,TGI,[38],> 10 µM and 49.3 µM
same,GI50,[39],4.14 µM
same,TGI,[39],> 10 µM and 10.6 µM
same,GI50,[40],3.37 µM and 1.45 µM
same,TGI,[40],8.32 µM and > 45.3 µM
same,GI50,[41],9.75 µM and 4.73 µM
same,TGI,[41],> 10 µM and 27.7 µM
same,GI50,[42],3.07 µM and 2.29 µM
same,TGI,[42],> 10 µM and 12.7 µM
same,GI50,[43],2.7 µM
same,TGI,[43],22.6 µM
same,GI50,[44],4.02 µM and 2.95 µM
same,TGI,[44],> 10 µM and 54.8 µM
same,GI50,[45],2.71 µM and 3.04 µM
same,TGI,[45],> 10 µM and 14.2 µM
same,GI50,[46],4.11 µM and 2.95 µM
same,TGI,[46],> 10 µM and 19.2 µM
same,GI50,[47],5.29 µM and 3.19 µM
same,TGI,[47],> 10 µM and 26.2 µM
same,GI50,[48],3.96 µM and 2.54 µM
same,TGI,[48],> 54.4 µM
same,GI50,[49],4.47 µM and 4.02 µM
same,TGI,[49],> 10 µM and 20.6 µM
same,GI50,[50],2320 nM and 1640 nM
same,TGI,[50],> 10 µM and 6.01 µM
same,GI50,[51],2830 nM and 2170 nM
same,TGI,[51],> 10 µM and 10.1 µM
same,GI50,[52],3.62 µM and 4.32 µM
same,TGI,[52],> 65.5 µM
same,GI50,[53],4.17 µM and 3.43 µM
same,TGI,[53],> 10 µM and 25.6 µM
same,GI50,[54],484 nM and 506 nM
same,TGI,[54],6.73 µM and 7.66 µM
same,GI50,[55],3.87 µM and 3.24 µM
same,TGI,[55],> 100 µM
same,GI50,[56],2040 nM and 2230 nM
same,TGI,[56],6.83 µM and 10.8 µM
same,GI50,[57],5.47 µM and 4.04 µM
same,TGI,[57],> 58.5 µM
same,GI50,[58],6.52 µM and 6.2 µM
same,TGI,[58],> 10 µM and 25.9 µM
CC(=O)Nc1nc(C)c(-c2cc3c(c(S(C)(=O)=O)c2)C(=O)N([C@@H](C)C2CC2)C3)s1,GI50,[1],3.11 µM
same,TGI,[1],35.6 µM
same,GI50,[2],23700 nM
same,TGI,[2],> 100 µM
same,GI50,[3],28300 nM
same,TGI,[3],> 100 µM
same,GI50,[4],28.2 µM
same,TGI,[4],> 100 µM
same,GI50,[5],37.7 µM
same,TGI,[5],> 100 µM
same,GI50,[6],53.6 µM
same,TGI,[6],> 100 µM
same,GI50,[7],24800 nM
same,TGI,[7],> 100 µM
same,GI50,[8],31000 nM
same,TGI,[8],> 100 µM
same,GI50,[9],28000 nM
same,TGI,[9],> 100 µM
same,GI50,[10],46.7 µM
same,TGI,[10],> 100 µM
same,GI50,[11],18300 nM
same,TGI,[11],79.9 µM
same,GI50,[12],28.7 µM
same,TGI,[12],> 100 µM
same,GI50,[13],23.6 µM
same,TGI,[13],> 100 µM
same,GI50,[14],29.9 µM
same,TGI,[14],> 100 µM
same,GI50,[15],31.1 µM
same,TGI,[15],> 100 µM
same,GI50,[17],29.2 µM
same,TGI,[17],> 100 µM
same,GI50,[18],17500 nM
same,TGI,[18],> 100 µM
same,GI50,[19],18.8 µM
same,TGI,[19],39.7 µM
same,GI50,[20],28 µM
same,TGI,[20],> 100 µM
same,GI50,[21],85 µM
same,TGI,[21],> 100 µM
same,GI50,[22],30.9 µM
same,TGI,[22],> 100 µM
same,GI50,[23],22200 nM
same,TGI,[23],56.4 µM
same,GI50,[24],65.5 µM
same,TGI,[24],> 100 µM
same,GI50,[25],31.6 µM
same,TGI,[25],> 100 µM
same,GI50,[26],15900 nM
same,TGI,[26],64.1 µM
same,GI50,[27],27200 nM
same,TGI,[27],> 100 µM
same,GI50,[28],39.4 µM
same,TGI,[28],> 100 µM
same,GI50,[29],34900 nM
same,TGI,[29],> 100 µM
same,GI50,[30],34.2 µM
same,TGI,[30],> 100 µM
same,GI50,[31],19000 nM
same,TGI,[31],53.5 µM
same,GI50,[32],29.5 µM
same,TGI,[32],> 100 µM
same,GI50,[33],24.2 µM
same,TGI,[33],> 100 µM
same,GI50,[34],28.1 µM
same,TGI,[34],> 100 µM
same,GI50,[35],18.4 µM
same,TGI,[35],64.2 µM
same,GI50,[36],20700 nM
same,TGI,[36],75.4 µM
same,GI50,[37],29.5 µM
same,TGI,[37],> 100 µM
same,GI50,[38],10.7 µM
same,TGI,[38],45 µM
same,GI50,[39],29.1 µM
same,TGI,[39],> 100 µM
same,GI50,[40],26.8 µM
same,TGI,[40],> 100 µM
same,GI50,[41],31.2 µM
same,TGI,[41],> 100 µM
same,GI50,[42],54.5 µM
same,TGI,[42],> 100 µM
same,GI50,[43],34.8 µM
same,TGI,[43],> 100 µM
same,GI50,[44],28.5 µM
same,TGI,[44],> 100 µM
same,GI50,[45],29.1 µM
same,TGI,[45],> 100 µM
same,GI50,[46],52.4 µM
same,TGI,[46],> 100 µM
same,GI50,[47],20.4 µM
same,TGI,[47],> 100 µM
same,GI50,[48],28.3 µM
same,TGI,[48],> 100 µM
same,GI50,[49],18.6 µM
same,TGI,[49],69.6 µM
same,GI50,[50],17600 nM
same,TGI,[50],55.4 µM
same,GI50,[51],14200 nM
same,TGI,[51],51.6 µM
same,GI50,[52],1.18 µM
same,TGI,[52],> 100 µM
same,GI50,[53],17.6 µM
same,TGI,[53],52.9 µM
same,GI50,[54],25400 nM
same,TGI,[54],> 100 µM
same,GI50,[55],37.1 µM
same,TGI,[55],> 100 µM
same,GI50,[56],21900 nM
same,TGI,[56],67.7 µM
same,GI50,[57],29.3 µM
same,TGI,[57],> 100 µM
same,GI50,[58],28.2 µM
same,TGI,[58],> 100 µM
